Results from patent US20110123490A1, “HE[…] COMPOUNDS” (priority 2009, published 2011).

How the values were obtained:
[1] = molecular target: T1, HCV polymerase (NS5B570n-Con1) (Hepatitis C virus genotype 1b, UniProt Q9WMX2); experiment: HCV NS5B RNA polymerase activity assay (incorporation of radiolabeled nucleotide into RNA); type: biochemical, HCV Con1 strain
T1 construct: contains a 21 amino acid deletion at the C-terminus relative to the full-length HCV polymerase; 6-histidine (N); made in house; host or cells: E. coli BL21(DE) pLysS, plasmid pET17b
Description: The enzymatic activity of HCV polymerase (NS5B570n-Con1) was measured as the incorporation of radiolabeled nucleotide monophosphates into acid insoluble RNA products. Unincorporated radiolabeled substrate was removed by filtration and scintillant was added to the washed and dried filter plate containing radiolabeled RNA product. The amount of RNA product generated by NS5B570-Con1 at the end of the reaction was directly proportional to the amount of light emitted by the scintillant.
The N-terminal 6-histidine tagged HCV polymerase, derived from HCV Con1 strain, genotype 1b (NS5B570n-Con1) contains a 21 amino acid deletion at the C-terminus relative to the full-length HCV polymerase and was purified from E. coli strain BL21(DE) pLysS. The construct, containing the coding sequence of HCV NS5B Con1 (GenBank accession number AJ242654) was inserted into the plasmid construct pET17b, downstream of a T7 promoter expression cassette and transformed into E. coli. A single colony was grown overnight as a starter culture and later used inoculate 10 L of LB media supplemented with 100 μg/mL ampicillin at 37° C. Protein expression was induced by the addition of 0.25 mM isopropyl-β-D-thiogalactopyranoside (IPTG) when optical density at […] of the culture was between 0.6 and 0.8 and cells were harvested after 16 to 18 h at 30° C. NS5B570n-Con1 was purified to homogeneity using a three-step protocol including subsequent column chromatography on Ni-NTA, SP-Sepharose HP and Superdex 75 resins.
Each 50 μL enzymatic reaction contained 20 nM RNA template derived from the complementary sequence of the Internal Ribosome Entry Site (cIRES), 20 nM NS5B570n-Con1 enzyme, 0.5 μCi of tritiated UTP (Perkin Elmer catalog no. TRK-412; specific activity: 30 to 60 Ci/mmol; stock solution concentration from 7.5×10^−5 M to 20.6×10^−6 M), 1 μM each ATP, CTP, and GTP, 40 mM Tris-HCl pH 8.0, 40 mM NaCl, 4 mM DTT (dithiothreitol), 4 mM MgCl2, and 5 μL of compound serial diluted in DMSO. Reaction mixtures were assembled in 96-well filter plates (cat #MADVN0B, Millipore Co.) and incubated for 2 h at 30° C. Reactions were stopped by addition of 10% final (v/v) trichloroacetic acid and incubated for 40 min at 4° C. […]
The amount of light emitted from the scintillant was converted to counts per minute (CPM) on a Topcount® plate reader (Perkin-Elmer, Energy Range: Low, Efficiency Mode Normal, Count Time: 1 min, Background Subtract: none, Cross talk reduction: Off).
Data was analyzed in Excel® (Microsoft®) and ActivityBase® (Idbs®). […] All data was expressed as a percentage of the positive control. […]

[2] = test system: HCV replicon cells (2209-23), genotype 1b replicon in Huh7 cells; experiment: HCV replicon assay (Renilla luciferase reporter); type: cell-based, HCV genotype 1b; settings: Hepatitis C virus, Huh-7, 72 h; 2209-23 cells, three days incubation, luciferase readout
in vitro = settings: human

Structure (SMILES): COc1c(-c2ccc3cc(NS(C)(=O)=O)ccc3c2)cc(-n2ccc(=O)[nH]c2=O)c2c1C(C)(C)CO2 [Compound I-2, N-{6-[7-(2,4-Dioxo-3,4-dihydro-2H-pyrimidin-1-yl)-4-methoxy-3,3-dimethyl-2,3-dihydro-benzofuran-5-yl]-naphthalen-2-yl}-methanesulfonamide]
- IC50 [1]: 0.6 nM
- IC50 [2]: 5.2 nM
- CC50 (in vitro): 12000 nM

Structure (SMILES): COc1c(-c2ccc3cc(NS(C)(=O)=O)ccc3c2)cc(N2CCC(=O)NC2=O)c2c1C(C)(C)CO2 [Compound I-3, N-{6-[7-(2,4-Dioxo-tetrahydro-pyrimidin-1-yl)-4-methoxy-3,3-dimethyl-2,3-dihydro-benzofuran-5-yl]-naphthalen-2-yl}-methanesulfonamide]
- IC50 [1]: 4.7 nM

Structure (SMILES): CC1(C)COc2c(-n3ccc(=O)[nH]c3=O)cc(-c3ccc4cc(NS(C)(=O)=O)ccc4c3)cc21 [Compound I-1, N-{6-[7-(2,4-Dioxo-3,4-dihydro-2H-pyrimidin-1-yl)-3,3-dimethyl-2,3-dihydro-benzofuran-5-yl]-naphthalen-2-yl}-methanesulfonamide]
- IC50 [1]: 0.5 nM

Structure (SMILES): CC1(C)COc2c(-c3ccc4cc(NS(C)(=O)=O)ccc4c3)cc(-n3ccc(=O)[nH]c3=O)cc21 [Compound I-4, N-{6-[5-(2,4-Dioxo-3,4-dihydro-2H-pyrimidin-1-yl)-3,3-dimethyl-2,3-dihydro-benzofuran-7-yl]-naphthalen-2-yl}-methanesulfonamide]
- IC50 [1]: 0.9 nM
- IC50 [2]: 106 nM
- CC50 (in vitro): 2700 nM
